# Experimental data reported in patent publication US20250270173A1, “PYRIDINE DERIVATIVES FOR TREATING PSYCHIATRIC DISORDERS” (GILGAMESH PHARMACEUTICALS, INC., priority 2022, published 2025).
# Several values for one entry are separate records, joined by “and”; a condition that tells them apart may be missing. Equal values may be shown once. Read-outs that look alike come from different tables or passages of the source.
# Experiments:
# 5-HT2A receptor [1] = target: T1, 5-HT2A receptor (Homo sapiens (Human), UniProt P28223); assay: FLIPR Ca2+ flux functional assay at 5-HT2A (HEK293); conditions: for 5-HT2A % Act @ Max Conc.: HEK293, at max concentration
# 5-HT1A receptor = 5-HT1A receptor (Homo sapiens (Human), UniProt P08908); assay: FLIPR Ca2+ flux functional assay at 5-HT1A (CHO cells); conditions: for 5-HT1A % Act @ Max Conc.: at max concentration
# 5-HT2B receptor = 5-HT2B receptor (Homo sapiens (Human), UniProt P41595); assay: FLIPR Ca2+ flux functional assay at 5-HT2B (HEK293); conditions: for 5-HT2B % Act @ Max Conc.: HEK293, at max concentration
# Sequence of 5-HT2B receptor (P41595 whole entry, looked up): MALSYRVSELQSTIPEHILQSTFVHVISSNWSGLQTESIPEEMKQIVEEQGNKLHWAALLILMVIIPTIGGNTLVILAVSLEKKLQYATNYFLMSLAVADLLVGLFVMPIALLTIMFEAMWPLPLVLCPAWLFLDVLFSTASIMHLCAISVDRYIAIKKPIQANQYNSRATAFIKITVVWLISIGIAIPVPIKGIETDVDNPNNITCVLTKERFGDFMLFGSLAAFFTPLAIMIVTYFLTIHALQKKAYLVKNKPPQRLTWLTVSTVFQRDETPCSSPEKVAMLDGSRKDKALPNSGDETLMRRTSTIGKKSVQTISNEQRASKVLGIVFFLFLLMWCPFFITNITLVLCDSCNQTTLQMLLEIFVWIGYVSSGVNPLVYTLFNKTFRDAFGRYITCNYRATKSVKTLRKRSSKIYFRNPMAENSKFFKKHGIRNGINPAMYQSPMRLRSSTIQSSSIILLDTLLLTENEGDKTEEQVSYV
# 5-HT2A receptor [2] = target: T1, 5-HT2A receptor; assay: 5-HT2A receptor radioligand binding with [3H]ketanserin; conditions: read-out: Ki at 5-HT2A Receptor (nM) ([3H]ketanserin); HEK293 stable cell line, 1 nM [3H]ketanserin, 1 h, 25 °C
# C57BL/6 mice = assay: Automated (video tracking) head twitch response (HTR) assay in mice; type: in vivo; conditions: SC; for ED50: Mus musculus, 20 min, 20 min recording, read-out: ED50; for Most Efficacious Dose; mg/kg: dose giving the most HTR
# Description: Disclosed compounds were tested for their ability to induce a head twitch response (HTR) in mice using an automated video tracking procedure, with the results summarized in Table 5. […] The phenyl Compound 44 was substantially more efficacious at inducing HTR than its pyridine counterpart Compound 29, in agreement with the generally lower maximal efficacy of the disclosed pyridine compounds for signaling through 5-HT2A receptors.
# Animals. Adult male C57BL/6 mice aged 8-10 weeks (body weight 20-25 g) were used in these experiments. Animals were housed under controlled temperatures and 12-hour light/dark cycles (lights on between 07:00-19:00 h), with ad libitum food and water. The protocol was approved by the Institutional Animal Care and Use Committee at the study site. This study was carried out in strict accordance with the recommendations in the Guide for the Care and Use of Laboratory Animals of the National Institutes of Health. All efforts were made to minimize suffering.
# Drugs and Drug Administration. […] was commercially obtained. Disclosed compounds were synthesized as described above. They were administered subcutaneously (SC) dissolved in saline (or saline acidified with 1-2 molar equivalents HCl to form the salt in situ for freebase compounds) at a volume of 10 mL/kg. Five doses were tested, with N=5-8 animals/group. Doses were calculated on the basis of the freebase, except for DOI, which was calculated based on the HCl salt.
# Procedure. Mice were administered one dose of the drug and immediately placed into a small open field for behavioral observation. High-speed video of animals' behavior was captured continuously for 20 min. Video recordings were imported into an image processing software, which detects multiple points of interest on each animal's body, including the left and right ear. HTR events were defined as periodic deviations of ear locations from temporally averaged ear locations. Predefined thresholds for magnitude and frequency of location deviations were used to filter […] events from random head movements. The method was validated by comparing detected events with manual (human) observations and found to have an accuracy >95%. The total number of HTR events counted during the 20-min recording were determined for each animal at each dose.
# Statistical Analysis. Analysis was performed using GraphPad Prism 9. Dose-response curves were fit via non-linear regression using the Gaussian 2020 function in Prism in order to determine the ED50 and Emax for each compound.
# human 5-HT2C receptor = human 5-HT2C receptor (Homo sapiens (Human), UniProt P28335); assay: FLIPR Ca2+ flux functional assay at 5-HT2C (Eurofins DiscoverX); type: cell-based; conditions: for 5-HT2C % Act @ Max Conc.: Ca2+ flux, human 5-HT2C, at max concentration
# Sequence of human 5-HT2C receptor (P28335 whole entry, looked up): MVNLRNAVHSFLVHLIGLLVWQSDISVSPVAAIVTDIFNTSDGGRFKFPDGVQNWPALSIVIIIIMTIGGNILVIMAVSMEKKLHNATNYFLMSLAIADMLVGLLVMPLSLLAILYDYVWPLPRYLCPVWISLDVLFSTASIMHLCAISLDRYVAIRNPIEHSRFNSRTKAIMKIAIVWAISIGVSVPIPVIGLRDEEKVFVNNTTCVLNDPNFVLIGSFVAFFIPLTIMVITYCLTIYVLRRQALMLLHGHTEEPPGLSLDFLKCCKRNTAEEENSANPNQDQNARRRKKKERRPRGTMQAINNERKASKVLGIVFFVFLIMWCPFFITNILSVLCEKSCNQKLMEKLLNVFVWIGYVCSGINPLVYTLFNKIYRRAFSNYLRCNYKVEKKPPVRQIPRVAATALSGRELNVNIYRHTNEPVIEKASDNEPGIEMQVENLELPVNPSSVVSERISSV
# Description: Functional Assays at 5-HT2C Receptors. […] Probenecid was prepared fresh. Cells were loaded with dye prior to testing and incubated at 37° C. for 30-60 minutes. After dye loading, cells were removed from the incubator and 10 μL HBSS/20 mM Hepes was added. 3× vehicle was included in the assay buffer. Cells were incubated for 30 mins at room temperature in the dark to equilibrate plate temperature. Intermediate dilution of sample stocks was performed to generate 4× sample in assay buffer. Compound agonist activity was measured on a FLIPR Tetra (MDS). Calcium mobilization was monitored for 2 minutes and 10 μL 4× sample in HBSS/20 mM Hepes was added to the cells 5 seconds into the assay.
# [3] = read-out: 5-HT2A EC50, Ca2+ flux, HEK293
# [4] = read-out: 5-HT2B EC50, Ca2+ flux, HEK293
Structure (SMILES),EC50 (5-HT2A receptor [1]) [nM],5-HT2A % Act @ Max Conc. (5-HT2A receptor [1]; Ca2+ flux),"5-HT1A % Act @ Max Conc. (5-HT1A receptor; Ca2+ flux, CHO cells) [%]",5-HT2B % Act @ Max Conc. (5-HT2B receptor; Ca2+ flux) [%],EC50 (5-HT1A receptor) [nM],EC50 (5-HT2B receptor) [nM],5-HT2C % Act @ Max Conc. (human 5-HT2C receptor) [%],other results
"CCC(N)Cc1nc(OC)c(C)cc1OC (stereo not shown) [Compound 2, 1-(3,6-dimethoxy-5-methylpyridin-2-yl)butan-2-amine]",847,69.78%,–,–,–,–,–,–
"COc1cc(CCN)c(OC)cc1Br [Compound 2C-B, 2C-B, reference compound]",–,99.7%,47.8,73.3,–,–,–,"EC50 (5-HT2A receptor [1]; [3]): 0.478 nM; EC50 (5-HT1A receptor; read-out: 5-HT1A EC50, Ca2+ flux, CHO cells): 33100 nM; EC50 (5-HT2B receptor; [4]): 20 nM; Ki (5-HT2A receptor [2]): 8.25 nM"
"CCc1cc(OC)c(CCN)cc1OC [Compound 2C-E, 2C-E, reference compound]",–,105%,17.9,66.2,–,–,–,EC50 (5-HT2A receptor [1]; [3]): 0.747 nM; EC50 (5-HT2B receptor; [4]): 29.7 nM; Ki (5-HT2A receptor [2]): 16.7 nM
"CCC(N)Cc1nc(OC)c(Br)cc1OC (stereo not shown) [Compound 3, 1-(5-bromo-3,6-dimethoxypyridin-2-yl)butan-2-amine]",136,70.17%,–,–,–,–,–,–
"COc1cc(C)c(OC)nc1CC(C)N (stereo not shown) [Compound 5, 1-(3,6-dimethoxy-5-methylpyridin-2-yl)propan-2-amine]",30,104.25%,0.59,68.46,> 100000,575,–,–
"COc1cc(Br)c(OC)nc1CC(C)N (stereo not shown) [Compound 6, 1-(5-bromo-3,6-dimethoxypyridin-2-yl)propan-2-amine]",2.13,95.6%,1.66,70.54,> 100000,170,–,–
"COc1cc(C)c(OC)nc1CCN [Compound 8, 2-(3,6-dimethoxy-5-methylpyridin-2-yl)ethan-1-amine]",65.8,85.81%,−0.62,36.99,> 100000,1010,–,–
"COc1cc(Br)c(OC)nc1CCN [Compound 9, 2-(5-bromo-3,6-dimethoxypyridin-2-yl)ethan-1-amine]",9.81,96.84%,2.11,38.01,> 100000,764,95.94,ED50 (C57BL/6 mice): 1.38 mg/kg; Emax (HTR counts/20 min) (C57BL/6 mice): 49.65 HTR counts/20 min; # HTR/20 min at Most Efficacious Dose (C57BL/6 mice): 45.75 HTR/20 min; Most Efficacious Dose; mg/kg (C57BL/6 mice): (3.2) mg/kg; EC50 (human 5-HT2C receptor): 30.7 nM
"CCCCCc1cc(OC)c(CC(N)CC)cc1OC (stereo not shown) [Compound 10, 1-(2,5-dimethoxy-4-pentylphenyl)butan-2-amine]",–,72% and 71.5%,33.1,0.211,–,–,115,–
"CCCCCc1nc(OC)c(CC(N)CC)cc1OC (stereo not shown) [Compound 11, 1-(2,5-dimethoxy-6-pentylpyridin-3-yl)butan-2-amine]",356,62.2%,197,6.92,19200,–,–,–
"CCCCCc1nc(OC)c(CC(N)CC)nc1OC (stereo not shown) [Compound 12, 1-(3,6-dimethoxy-5-pentylpyrazin-2-yl)butan-2-amine]",> 3160,37.1%,170,7.05,33300,–,–,–
"CCc1cc(OC)c(CC(N)CC)nc1OC (stereo not shown) [Compound 21, 1-(5-ethyl-3,6-dimethoxypyridin-2-yl)butan-2-amine]",170,73.61%,–,–,–,–,–,–
"CCSc1cc(OC)c(CCN)nc1OC [Compound 22, 2-(5-(ethylthio)-3,6-dimethoxypyridin-2-yl)ethan-1-amine]",4.09,94.73%,−1.51,22.75,> 100000,215,–,–
"CCSc1cc(OC)c(CC(C)N)nc1OC (stereo not shown) [Compound 23, 1-(5-(ethylthio)-3,6-dimethoxypyridin-2-yl)propan-2-amine]",3.03,106.2%,3.21,67.46,> 100000,44.5,–,–
"CCSc1cc(OC)c(CC(N)CC)nc1OC (stereo not shown) [Compound 24, 1-(5-(ethylthio)-3,6-dimethoxypyridin-2-yl)butan-2-amine]",74.6,77.03%,2.99,14.99,> 100000,> 10000,–,–
"COc1cc(C2CC2)c(OC)nc1CCN [Compound 26, 2-(5-cyclopropyl-3,6-dimethoxypyridin-2-yl)ethan-1-amine]",27,81.58%,2.22,5.16,> 100000,> 10000,–,–
"CCC(N)Cc1nc(OC)c(C2CC2)cc1OC (stereo not shown) [Compound 28, 1-(5-cyclopropyl-3,6-dimethoxypyridin-2-yl)butan-2-amine]",161,71.49%,–,–,–,–,–,–
"CCCCCCc1cc(OC)c(CCN)nc1OC [Compound 29, 2-(5-hexyl-3,6-dimethoxypyridin-2-yl)ethan-1-amine]",34.6,69.91%,–,7.78,> 100000,> 10000,–,ED50 (C57BL/6 mice): 7.46 mg/kg; Emax (HTR counts/20 min) (C57BL/6 mice): 22.11 HTR counts/20 min; # HTR/20 min at Most Efficacious Dose (C57BL/6 mice): 23 HTR/20 min; Most Efficacious Dose; mg/kg (C57BL/6 mice): (3.2) mg/kg
"CCCc1cc(OC)c(CC(N)CC)nc1OC (stereo not shown) [Compound 37, 1-(3,6-dimethoxy-5-propylpyridin-2-yl)butan-2-amine]",128,49.58%,42.24,12.18,> 100000,> 10000,–,–
"CCC(N)Cc1cc(OC)c(C)cc1OC (stereo not shown) [Compound 39, reference compound]",–,112.8%,8.7,39.2,–,–,99.3,–
"CCCc1cc(OC)c(CC(N)CC)cc1OC (stereo not shown) [Compound 40, reference compound]",–,84.23%,96.43,−0.18,–,–,93.58,–
"CCCCCc1cc(OC)c(CC(C)N)cc1OC (stereo not shown) [Compound 41, reference compound]",–,100.2%,15.0,20.0,–,–,90.1,–
"CCCCCCc1cc(OC)c(CC(C)N)cc1OC (stereo not shown) [Compound 42, reference compound]",–,119.7%,30.4,39.8,–,–,99.8,–
"CCCCCc1cc(OC)c(CCN)cc1OC [Compound 43, reference compound]",–,105.2%,18.9,62.2,–,–,85.6,–
"CCCCCCc1cc(OC)c(CCN)cc1OC [Compound 44, reference compound]",–,90.51%,183.21,46.79,–,–,82.62,ED50 (C57BL/6 mice): 1.36 mg/kg; Emax (HTR counts/20 min) (C57BL/6 mice): 57.87 HTR counts/20 min; # HTR/20 min at Most Efficacious Dose (C57BL/6 mice): 58.0 HTR/20 min; Most Efficacious Dose; mg/kg (C57BL/6 mice): (3.2) mg/kg
"COc1cc(CCN)cc(OC)c1OC [Mescaline, reference compound]",–,102%,−5.03,45.4,–,–,91.1,–
